Reference: patent US10414774B2, “Compound useful for altering the levels of bile acids for the treatment of diabetes and cardiometabolc disease” (Merck Sharp & Dohme Corp., priority 2016, dated 2019)
pIC50: −log10 of the molar value.

What follows are molecules tested against T1, Human CYP8B1 (Homo sapiens, UniProt Q9UNU6) (assay: Human CYP8B1 Liver Microsome Assay). Details: Human CYP8B1 IC50, human liver microsomes; substrate 7a-hydroxy-4-cholesten-3-one, NADPH; RapidFire MS detection of 7α,12α-dihydroxy-4-cholesten-3-one.
T1 sequence (Q9UNU6 1-501): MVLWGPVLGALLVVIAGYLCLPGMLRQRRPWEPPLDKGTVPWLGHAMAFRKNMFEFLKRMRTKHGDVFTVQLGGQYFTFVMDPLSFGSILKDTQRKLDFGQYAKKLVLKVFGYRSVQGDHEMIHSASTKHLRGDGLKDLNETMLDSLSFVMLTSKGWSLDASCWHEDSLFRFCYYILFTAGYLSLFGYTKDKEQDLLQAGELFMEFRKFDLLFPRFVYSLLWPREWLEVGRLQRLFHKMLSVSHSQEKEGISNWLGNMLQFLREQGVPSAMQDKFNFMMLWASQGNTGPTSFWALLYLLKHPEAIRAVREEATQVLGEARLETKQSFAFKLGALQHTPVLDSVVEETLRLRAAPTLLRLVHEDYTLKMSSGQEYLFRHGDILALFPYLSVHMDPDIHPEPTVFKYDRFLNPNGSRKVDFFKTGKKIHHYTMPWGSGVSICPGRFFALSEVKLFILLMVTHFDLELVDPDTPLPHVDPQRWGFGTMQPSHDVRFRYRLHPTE

Row | pIC50 | Molecule
1 | 6.57 | COC(=O)c1ccc2nc(C(=O)OC)c(C#N)c(N3CC[C@H](C(=O)N4CCn5c(nnc5C(F)(F)F)C4)[C@H](C)C3)c2c1 [Example 60, dimethyl 3-cyano-4-[(3S,4S)-3-methyl-4-{[3-(trifluoromethyl)-5,6-dihydro[1,2,4]triazolo[4,3-a]pyrazin-7(8H)-yl]carbonyl}piperidin-1-yl]quinoline-2,6-dicarboxylate]
2 | 6.01 | COc1ccc2c(N3C[C@@H](C)N(C(=O)N4CCn5c(nnc5C(F)(F)F)C4)[C@@H](C)C3)c(C#N)cnc2c1 [Example 83b, 4-((3S,5R)-3,5-dimethyl-4-(3-(trifluoromethyl)-5,6,7,8-tetrahydro-[1,2,4]triazolo[4,3-a]pyrazine-7-carbonyl)piperazin-1-yl)-7-methoxyquinoline-3-carbonitrile]
3 | 6.36 | CO[C@@H]1CN(c2c(C#N)cnc3ccc(Cl)cc23)CC[C@H]1C(=O)N1CCn2c(nnc2C(F)(F)F)C1 [Example 72b, 6-chloro-4-[(3S,4R)-3-methoxy-4-{[3-(trifluoromethyl)-5,6-dihydro[1,2,4]triazolo[4,3-a]pyrazin-7(8H)-yl]carbonyl}piperidin-1-yl]quinoline-3-carbonitrile]
4 | 7.74 | COC(=O)c1nc2ccc(Cl)cc2c(N2CC[C@H](C(=O)N3CCn4c(nnc4C(F)(F)F)C3)[C@H](C)C2)c1C#N [Example 59, methyl 6-chloro-3-cyano-4-[(3S,4S)-3-methyl-4-{[3-(trifluoromethyl)-5,6-dihydro[1,2,4]triazolo[4,3-a]pyrazin-7(8H)-yl]carbonyl}piperidin-1-yl]quinoline-2-carboxylate]
5 | 8.32 | CC1CN(c2c(C#N)cnc3c(C(F)F)cc(Cl)cc23)CCC1C(=O)N1CCn2c(nnc2C(F)(F)F)C1 (centres unmarked) [Example 58]
6 | 8.92 | CC1CN(c2c(C#N)cnc3ccc(F)cc23)CCC1C(=O)N1CCn2c(nnc2C(F)(F)F)C1 (centres unmarked) [Example 117, 6-fluoro-4-(3-methyl-4-{[3-(trifluoromethyl)-5,6-dihydro[1,2,4]triazolo[4,3-a]pyrazin-7(8H)-yl]carbonyl}piperidin-1-yl)quinoline-3-carbonitrile]

Second part, the molecule before the results:

Row | Molecule | pIC50
7 | COc1ccc2c(N3CCC(C(=O)N4CCn5c(nnc5C(F)(F)F)C4)CC3)c(C#N)cnc2c1F [Example 42, 8-fluoro-7-methoxy-4-(4-{[3-(trifluoromethyl)-5,6-dihydro[1,2,4]triazolo[4,3-a]pyrazin-7(8H)-yl]carbonyl}piperidin-1-yl)quinoline-3-carbonitrile] | 7.31
8 | C[C@@H]1CN(c2c(C#N)c(C(F)F)nc3ccc(Cl)cc23)CC[C@@H]1C(=O)N1CCn2c(nnc2C(F)(F)F)C1 (single isomer, unassigned) [Example 57a] | 7.39
9 | C[C@@H]1CN(c2c(C#N)cnc3c(F)c(F)c(F)cc23)CC[C@@H]1C(=O)N1CCn2c(nnc2C(F)(F)F)C1 [Example 7, 6,7,8-trifluoro-4-[(3S,4S)-3-methyl-4-{[3-(trifluoromethyl)-5,6-dihydro[1,2,4]triazolo[4,3-a]pyrazin-7(8H)-yl]carbonyl}piperidin-1-yl]quinoline-3-carbonitrile] | 8.96
10 | C[C@@H]1CN(c2c(C#N)cnc3c(F)cc(F)cc23)CC[C@@H]1C(=O)N1CCn2c(nnc2C(F)(F)F)C1 [Example 26, 6,8-difluoro-4-[(3S,4S)-3-methyl-4-{[3-(trifluoromethyl)-5,6-dihydro[1,2,4]triazolo[4,3-a]pyrazin-7(8H)-yl]carbonyl}piperidin-1-yl]quinoline-3-carbonitrile] | 9.31

What follows are molecules tested against T1, Human CYP8B1 (assay: not given). Details: not given.

Row | pIC50 | Molecule
11 | 5.35 | 6-chloro-4-[(3S,4S)-4-(6,7-dihydro[1,2,3]triazolo[1,5-a]pyrazin-5-(4H)-ylcarbonyl)-3-methylpiperidin-1-yl]-2-methylquinoline-3-carbonitrile [Example 94]
